Entries after “also recorded” stand apart in the source; their conditions may differ.
Columns and labels:
sciatic nerve = assay: Sciatic nerve axotomy (crush), axon number and myelination; format: in vivo, Sprague-Dawley rats
Source text: FIGS. 3A-3D are photomicrographs of rat […] sections. […] Sciatic nerves of 150 g male Sprague-Dawley rats were crushed at the level of the hips. […] Animals were sacrificed, sciatic nerves removed and nerve segments 2 mm distal to the crush site were sectioned and stained with Holmes silver stain (to assess axon number) and Luxol fast blue (to assess remyelination). The micrographs show sciatic nerve sections of sham operated rats, vehicle-treated lesioned animals. […] Six-week old male Sprague-Dawley rats were anesthetized, and the sciatic nerve exposed and crushed, at the level of the hip, by forceps. Test compounds or vehicle were administered subcutaneously just prior to the lesion and daily for the following 18 days. Sections of the sciatic nerve were stained with Holmes silver stain to quantify the number of axons, and Luxol fast blue to quantify the level of myelination. […] “Sham” denotes control animals that received vehicle but were not lesioned; “Vehicle” denotes animals that were lesioned and received only vehicle (i.e., no drug).

[1] = tested on: chick dorsal root ganglia; assay: Chick dorsal root ganglion cultures and neurite outgrowth; format: cell-based; conditions: 48 h; for EC50: Gallus gallus, read-out: ED50, neurite outgrowth
Source text: (§1) Forty-eight hours later, the number of neurite with a length greater than one DRG explant was quantitated. The number of neurites expressed in untreated DRG's was subtracted from the neurite number of Example 17—treated samples to yield Example 17—dependent specific neurite outgrowth.
as §1, with “form” for “from”, “outgrowth. Quantitative dose-dependent neurite outgrowth elicited by Example 17 is presented.” for “outgrowth.”
Dorsal root ganglia were dissected from chick embryos of ten day gestation. Whole ganglion explants were cultured on thin layer Matrigel-coated 12 well plates with Liebovitz L15 plus high glucose media supplemented with 2 mM glutamine and 10% fetal calf serum, and also containing 10 μM cytosine β-D arabinofuranoside (Ara C) at 37° C. in an environment containing 5% CO2. Twenty-four hours later, the DRGs were treated with various concentrations of nerve growth factor, immunophilin ligands or combinations of NFG plus drugs. Forty-eight hours after drug treatment, the ganglia were visualized under phase contrast or Hoffman Modulation contrast with a Zeiss Axiovert inverted microscope. Photomicrographs of the explants were made, and neurite outgrowth was quantitated. Neurites longer than the DRG diameter were counted as positive, with total number of neurites quantitated per each experimental condition. Three to four DRGs are cultured per well, and each treatment was performed in duplicate.

dopaminergic neurons = assay: MPTP model of Parkinson's Disease in mice; format: in vivo, CD1 mice
Protocol: FIG. 4 is a graph of [^3H]-CFT binding per μg of Striatal Membrane Protein. […] CD1 mice (25 g) were treated daily with 30 mg/kg MPTP (i.p.) for 5 days. […] After eighteen days, the mice were sacrificed, striata from 5 animals per group were pooled and processed into a washed membrane preparation. Binding of [3H]-CFT to these striated membrane preparations of various groups was quantitated to determine dopamine transporter levels on viable nerve terminals. Binding in the presence of 10 μM unlabelled CFT provided on estimate of nonspecific binding, which as subtracted from the total binding to quantitative specific [3H]-CFT bound. Binding was normalized to the protein content of the striatal membranes from each experimental group. Coronal and saggital brain sections from MPTP and drug treated animals were stained with anti-tyrosine hydroxylase (TH) Ig to quantitate striatal, medial forebrain bundle axonal and nigral levels of TH, which is indicative of functional dopaminergic neurons. […] Binding of [3H]CFT, a radioligand for the dopamine transporter, to the […] membranes was done to quantitate the level of the dopamine transporter (DAT) following lesion and drug treatment. Immunostaining was performed on saggital and coronal brain sections using anti-tyrosine hydoxylase Ig to quantitate survival and recovery of dopaminergic neurons. […]

[2] = 30 mg/kg s.c., just prior to lesion and daily for 18 days

SMILES | axon number, decrease as compared to non-lesioned control (sciatic nerve; [2]) [%] | degree of myelination, decrease as compared to control (sciatic nerve; [2]) [%] | neuronal regeneration, appearance of sciatic nerve sections (sciatic nerve; 30 mg/kg s.c., compared with sham and vehicle-treated lesioned animals) | Axon Number (% Control) (sciatic nerve; lesioned rats, 30 mg/kg s.c. daily, Holmes silver stain) | Myelin Level (sciatic nerve; lesioned rats, 30 mg/kg s.c. daily, Luxol fast blue, Sham = 100) | EC50 [1] [nM] | recovery of [3H]-CFT binding (dopaminergic neurons; 40 mg/kg s.c. in addition to MPTP, striatal membranes, dopamine transporter level) | recovery of TH-stained dopaminergic neurons (tyrosine hydroxylase immunostaining) (dopaminergic neurons; 10-40 mg/kg s.c., striatum, nigra, medial forebrain bundle, versus MPTP/Vehicle) | neurite outgrowth in sensory neuronal cultures ([1]; chick DRG explants, various concentrations)
CCC(C)(C)C(=O)C(=O)N1CCC[C@H]1C(=O)OCCCc1ccccc1 [Example 1, 3-phenyl-1-propyl (2S)-1-(3,3-dimethyl-1,2-dioxopentyl)-2-pyrrolidinecarboxylate] | 5 | 50 | striking similarity to the sham treated animals; also recorded: promotes neuronal regeneration following sciatic nerve lesions | 100 | 50 | 53 | – | – | –
CCC(C)(C)C(=O)C(=O)N1CCC[C@H]1C(=O)OCCCc1cccnc1 [Example 17, 3-(3-Pyridyl)-1-propyl (2S)-1-(3,3-dimethyl-1,2-dioxopentyl)-2-pyrrolidinecarboxylate] | – | – | – | – | – | 0.05 | greater than 90% | nearly quantitative recovery; also recorded: clear and marked recovery of functional neurons | potently promotes neurite outgrowth
